Measurements: PubChem BioAssay (NCI)
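Following 48 hours of exposure in 96-well plates, responses at five concentrations were used to interpolate endpoints linearly. GI50 = concentration required for 50% inhibition of growth. At the TGI there is no net growth.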

How the values were obtained:
Assay in all cases: NCI-60 cell line screen, 48 h; in the data active = GI50 below about 0.43 µM; inactive = the rest
786-0 renal = test system: 786-0 renal
A498 renal = test system: A498 renal
A549 NSCLC = test system: A549 NSCLC
ACHN renal = test system: ACHN renal
BT-549 breast = test system: BT-549 breast
CAKI-1 renal = test system: CAKI-1 renal
CCRF-CEM leukemia = test system: CCRF-CEM leukemia
COLO 205 colon = test system: COLO 205 colon
DU-145 prostate = test system: DU-145 prostate
EKVX NSCLC = test system: EKVX NSCLC
HCC-2998 colon = test system: HCC-2998 colon
HCT-116 colon = test system: HCT-116 colon
HCT-15 colon = test system: HCT-15 colon
HL-60(TB) leukemia = test system: HL-60(TB) leukemia
HOP-62 NSCLC = test system: HOP-62 NSCLC
HOP-92 NSCLC = test system: HOP-92 NSCLC
HS 578T breast = test system: HS 578T breast
HT29 colon = test system: HT29 colon
IGROV1 ovarian = test system: IGROV1 ovarian
K-562 leukemia = test system: K-562 leukemia
KM12 colon = test system: KM12 colon
LOX IMVI melanoma = test system: LOX IMVI melanoma
M14 melanoma = test system: M14 melanoma
MALME-3M melanoma = test system: MALME-3M melanoma
MCF7 breast = test system: MCF7 breast
MDA-MB-231 breast = test system: MDA-MB-231 breast
MDA-MB-435 = test system: MDA-MB-435
MOLT-4 leukemia = test system: MOLT-4 leukemia
NCI-H226 lung = test system: NCI-H226 lung
NCI-H23 lung = test system: NCI-H23 lung
NCI-H460 lung = test system: NCI-H460 lung
NCI-H522 lung = test system: NCI-H522 lung
NCI/ADR-RES ovarian = test system: NCI/ADR-RES ovarian
OVCAR-4 ovarian = test system: OVCAR-4 ovarian
OVCAR-5 ovarian = test system: OVCAR-5 ovarian
OVCAR-8 ovarian = test system: OVCAR-8 ovarian
PC-3 prostate = test system: PC-3 prostate
RPMI-8226 leukemia = test system: RPMI-8226 leukemia
RXF 393 renal = test system: RXF 393 renal
SF-268 CNS = test system: SF-268 CNS
SF-295 CNS = test system: SF-295 CNS
SF-539 CNS = test system: SF-539 CNS
SK-MEL-2 melanoma = test system: SK-MEL-2 melanoma
SK-MEL-28 melanoma = test system: SK-MEL-28 melanoma
SK-MEL-5 melanoma = test system: SK-MEL-5 melanoma
SK-OV-3 ovarian = test system: SK-OV-3 ovarian
SN12C renal = test system: SN12C renal
SNB-19 CNS = test system: SNB-19 CNS
SNB-75 CNS = test system: SNB-75 CNS
SR leukemia = test system: SR leukemia
SW-620 colon = test system: SW-620 colon
T-47D breast = test system: T-47D breast
TK-10 renal = test system: TK-10 renal
U251 CNS = test system: U251 CNS
UACC-257 melanoma = test system: UACC-257 melanoma
UACC-62 melanoma = test system: UACC-62 melanoma
UO-31 renal = test system: UO-31 renal

CNC(=O)c1cc(Oc2ccc3c(c2)sc2nc(-c4ccc(N(C)C)cc4)cn23)ccn1
0.831 µM: TGI (A498 renal)
0.398 µM: TGI (SNB-75 CNS)
2.6 µM: TGI (OVCAR-8 ovarian)
> 10.5 µM: TGI (SK-MEL-2 melanoma)
0.739 µM: TGI (HT29 colon)
6.37 µM: TGI (U251 CNS)
inactive: GI50 (DU-145 prostate) 0.451 µM | GI50 (EKVX NSCLC) 1.98 µM | GI50 (HCC-2998 colon) 0.836 µM | GI50 (LOX IMVI melanoma) 0.474 µM | GI50 (MDA-MB-231 breast) 0.438 µM | GI50 (NCI-H23 lung) 0.614 µM | GI50 (OVCAR-5 ovarian) 0.659 µM | GI50 (SF-268 CNS) 0.854 µM | GI50 (SK-MEL-2 melanoma) 0.496 µM | GI50 (SK-MEL-28 melanoma) 1.74 µM | GI50 (TK-10 renal) 3.72 µM | GI50 (UACC-257 melanoma) 19.6 µM
active: GI50 (786-0 renal) 0.291 µM | GI50 (A498 renal) 0.14 µM | GI50 (A549 NSCLC) 0.409 µM | GI50 (ACHN renal) 0.303 µM | GI50 (BT-549 breast) 0.208 µM | GI50 (CAKI-1 renal) 0.291 µM | GI50 (CCRF-CEM leukemia) 0.197 µM | GI50 (COLO 205 colon) 0.26 µM | GI50 (HCT-116 colon) 0.241 µM | GI50 (HCT-15 colon) 0.202 µM | GI50 (HL-60(TB) leukemia) 0.134 µM | GI50 (HOP-62 NSCLC) 0.319 µM | GI50 (HOP-92 NSCLC) 0.26 µM | GI50 (HS 578T breast) 0.219 µM | GI50 (HT29 colon) 0.177 µM | GI50 (IGROV1 ovarian) 0.292 µM | GI50 (K-562 leukemia) 0.152 µM | GI50 (KM12 colon) 0.241 µM | GI50 (M14 melanoma) 0.193 µM | GI50 (MALME-3M melanoma) 0.291 µM | GI50 (MCF7 breast) 0.167 µM | GI50 (MDA-MB-435) 0.094 µM | GI50 (MOLT-4 leukemia) 0.213 µM | GI50 (NCI-H226 lung) 0.39 µM | GI50 (NCI-H460 lung) 0.206 µM | GI50 (NCI-H522 lung) 0.146 µM | GI50 (NCI/ADR-RES ovarian) 0.186 µM | GI50 (OVCAR-8 ovarian) 0.355 µM | GI50 (PC-3 prostate) 0.225 µM | GI50 (RPMI-8226 leukemia) 0.329 µM | GI50 (RXF 393 renal) 0.128 µM | GI50 (SF-295 CNS) 0.16 µM | GI50 (SF-539 CNS) 0.178 µM | GI50 (SK-MEL-5 melanoma) 0.206 µM | GI50 (SK-OV-3 ovarian) 0.273 µM | GI50 (SN12C renal) 0.282 µM | GI50 (SNB-19 CNS) 0.251 µM | GI50 (SNB-75 CNS) 0.123 µM | GI50 (SR leukemia) 0.114 µM | GI50 (SW-620 colon) 0.226 µM | GI50 (T-47D breast) 0.271 µM | GI50 (U251 CNS) 0.21 µM | GI50 (UACC-62 melanoma) 0.17 µM | GI50 (UO-31 renal) 0.289 µM
> 13.4 µM: TGI (HCC-2998 colon)
> 18.1 µM: TGI (786-0 renal)
1.28 µM: TGI (SF-539 CNS)
1.77 µM: TGI (LOX IMVI melanoma)
31.4 µM: TGI (BT-549 breast)
0.237 µM: TGI (MDA-MB-435)
> 50 µM: TGI (A549 NSCLC) | TGI (ACHN renal) | TGI (CAKI-1 renal) | TGI (CCRF-CEM leukemia) | TGI (DU-145 prostate) | TGI (EKVX NSCLC) | TGI (HCT-116 colon) | TGI (HCT-15 colon) | TGI (HOP-62 NSCLC) | TGI (IGROV1 ovarian) | TGI (K-562 leukemia) | TGI (KM12 colon) | TGI (M14 melanoma) | TGI (MALME-3M melanoma) | TGI (MCF7 breast) | TGI (MOLT-4 leukemia) | TGI (NCI-H226 lung) | TGI (NCI-H23 lung) | TGI (NCI-H460 lung) | TGI (NCI/ADR-RES ovarian) | TGI (OVCAR-4 ovarian) | TGI (OVCAR-5 ovarian) | TGI (PC-3 prostate) | TGI (RPMI-8226 leukemia) | TGI (SF-268 CNS) | TGI (SK-MEL-28 melanoma) | TGI (SK-OV-3 ovarian) | TGI (SN12C renal) | TGI (SNB-19 CNS) | TGI (SR leukemia) | TGI (SW-620 colon) | TGI (T-47D breast) | TGI (TK-10 renal) | TGI (UACC-257 melanoma) | TGI (UACC-62 melanoma) | TGI (UO-31 renal)
> 30.3 µM: TGI (HOP-92 NSCLC)
0.74 µM: TGI (NCI-H522 lung)
0.44 µM: TGI (RXF 393 renal)
3.48 µM: TGI (HL-60(TB) leukemia)
2.11 µM: TGI (SK-MEL-5 melanoma)
> 44.1 µM: TGI (HS 578T breast)
> 37 µM: TGI (MDA-MB-231 breast)
1.96 µM: TGI (COLO 205 colon)
1.15 µM: TGI (SF-295 CNS)
